From ChEMBL document CHEMBL3992526, “Antagonizing NOD2 Signaling with Conjugates of Paclitaxel and Muramyl Dipeptide Derivatives Sensitizes Paclitaxel Therapy and Significantly Prevents Tumor Metastasis” (J Med Chem, 2017)

Biological target: T1, Nucleotide-binding oligomerization domain-containing protein 2 (Homo sapiens, UniProt Q9HC29)
Assay: Inhibition of MDP-induced human NOD2 signaling expressed in HEK-Blue cells at 10 uM preincubated for 3 hrs followed by MDP-stimulation for 20 hrs by spectrophotometry based SEAP reporter gene assay relative to control
Assay type: cell-based

T1 sequence (Q9HC29 whole entry, the tested form may be a part): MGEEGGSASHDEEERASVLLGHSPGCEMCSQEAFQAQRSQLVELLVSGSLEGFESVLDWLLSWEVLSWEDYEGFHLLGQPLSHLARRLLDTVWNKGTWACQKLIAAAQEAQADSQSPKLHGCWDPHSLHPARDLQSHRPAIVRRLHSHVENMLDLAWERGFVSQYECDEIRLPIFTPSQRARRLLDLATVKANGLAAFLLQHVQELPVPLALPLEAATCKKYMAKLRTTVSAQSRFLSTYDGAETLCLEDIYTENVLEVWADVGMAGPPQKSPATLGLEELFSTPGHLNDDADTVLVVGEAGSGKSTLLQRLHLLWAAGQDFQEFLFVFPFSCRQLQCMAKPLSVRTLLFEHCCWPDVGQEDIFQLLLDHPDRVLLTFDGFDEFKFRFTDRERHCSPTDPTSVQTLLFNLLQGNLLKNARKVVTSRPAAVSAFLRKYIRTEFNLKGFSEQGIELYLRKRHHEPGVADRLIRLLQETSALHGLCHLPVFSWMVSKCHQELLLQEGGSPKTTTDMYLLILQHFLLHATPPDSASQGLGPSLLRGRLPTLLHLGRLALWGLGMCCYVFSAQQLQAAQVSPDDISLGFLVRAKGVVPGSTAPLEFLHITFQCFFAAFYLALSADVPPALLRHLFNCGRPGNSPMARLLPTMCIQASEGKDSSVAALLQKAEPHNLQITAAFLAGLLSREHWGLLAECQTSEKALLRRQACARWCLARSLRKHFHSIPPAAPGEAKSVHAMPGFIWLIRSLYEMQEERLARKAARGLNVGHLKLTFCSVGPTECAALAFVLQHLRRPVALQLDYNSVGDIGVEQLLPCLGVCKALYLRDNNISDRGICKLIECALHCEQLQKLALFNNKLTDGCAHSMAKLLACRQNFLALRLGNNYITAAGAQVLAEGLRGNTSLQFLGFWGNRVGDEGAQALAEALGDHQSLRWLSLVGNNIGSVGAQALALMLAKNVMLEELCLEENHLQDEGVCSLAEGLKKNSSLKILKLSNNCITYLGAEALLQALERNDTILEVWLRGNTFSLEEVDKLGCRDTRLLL

First: CC(=O)O[C@@]12CO[C@@H]1C[C@H](O)[C@@]1(C)C(=O)[C@H](O)C3=C(C)[C@@H](OC(=O)[C@H](OCCC(=O)NCCCC[C@H](NC(=O)CC[C@@H](NC(=O)[C@H](C)NC(=O)/C=C/c4cccs4)C(N)=O)C(=O)O)[C@@H](NC(=O)C(C)(C)C)c4ccccc4)C[C@@](O)([C@@H](OC(=O)c4ccccc4)[C@H]21)C3(C)C
Second: CC(=O)O[C@@]12CO[C@@H]1C[C@H](O)[C@@]1(C)C(=O)[C@H](O)C3=C(C)[C@@H](OC(=O)[C@H](OCCC(=O)NCCCC[C@H](NC(=O)CC[C@@H](NC(=O)[C@H](C)NC(=O)/C=C/c4cccc(F)c4)C(N)=O)C(=O)O)[C@@H](NC(=O)C(C)(C)C)c4ccccc4)C[C@@](O)([C@@H](OC(=O)c4ccccc4)[C@H]21)C3(C)C
The inhibition of the first is lower: 26% for the first, 30% for the second.

Going from `CC(=O)O[C@H]1C(=O)[C@]2(C)[C@@H](OCCC(=O)NCCCC[C@H](NC(=O)CC[C@@H](NC(=O)[C@H](C)NC(=O)/C=C/c3ccc(Cl)cc3F)C(N)=O)C(N)=O)C[C@H]3OC[C@@]3(OC(C)=O)[C@H]2[C@H](OC(=O)c2ccccc2)[C@]2(O)C[C@H](O)C(C)=C1C2(C)C` to `CC(=O)O[C@H]1C(=O)[C@@]2(C)[C@H]([C@H](OC(=O)c3ccccc3)[C@]3(O)C[C@H](OCCC(=O)NCCCC[C@H](NC(=O)CC[C@@H](NC(=O)[C@H](C)NC(=O)/C=C/c4ccc(Cl)cc4F)C(N)=O)C(N)=O)C(C)=C1C3(C)C)[C@]1(OC(C)=O)CO[C@@H]1C[C@@H]2O`, the inhibition falls from 9% to 6%.

Compared with `CC(=O)O[C@@]12CO[C@@H]1C[C@H](O)[C@@]1(C)C(=O)[C@H](O)C3=C(C)[C@@H](OC(=O)[C@H](OCCC(=O)NCCCC[C@H](NC(=O)CC[C@@H](NC(=O)[C@H](C)NC(=O)c4ccc(Cl)cc4)C(N)=O)C(=O)O)[C@@H](NC(=O)C(C)(C)C)c4ccccc4)C[C@@](O)([C@@H](OC(=O)c4ccccc4)[C@H]21)C3(C)C`, `CC(=O)O[C@@]12CO[C@@H]1C[C@H](O)[C@@]1(C)C(=O)[C@H](O)C3=C(C)[C@@H](OC(=O)[C@H](OCCC(=O)NCCCC[C@H](NC(=O)CC[C@@H](NC(=O)[C@H](C)NC(=O)c4ccccc4)C(N)=O)C(=O)O)[C@@H](NC(=O)C(C)(C)C)c4ccccc4)C[C@@](O)([C@@H](OC(=O)c4ccccc4)[C@H]21)C3(C)C` is higher in inhibition: 14% for the first, 20% for the second.

Going from `CC(=O)O[C@H]1C(=O)[C@@]2(C)[C@H]([C@H](OC(=O)c3ccccc3)[C@]3(O)C[C@H](OC(=O)[C@H](OCCC(=O)NCCCC[C@H](NC(=O)CC[C@@H](NC(=O)[C@H](C)NC(=O)/C=C/c4ccc(C)cc4)C(N)=O)C(=O)O)[C@@H](NC(=O)c4ccccc4)c4ccccc4)C(C)=C1C3(C)C)[C@]1(OC(C)=O)CO[C@@H]1C[C@@H]2O` to `CC(=O)O[C@H]1C(=O)[C@@]2(C)[C@H]([C@H](OC(=O)c3ccccc3)[C@]3(O)C[C@H](OC(=O)[C@H](OCCC(=O)NCCCC[C@H](NC(=O)CC[C@@H](NC(=O)[C@H](C)NC(=O)/C=C/c4ccc(F)cc4)C(N)=O)C(=O)O)[C@@H](NC(=O)c4ccccc4)c4ccccc4)C(C)=C1C3(C)C)[C@]1(OC(C)=O)CO[C@@H]1C[C@@H]2O`, the inhibition falls from 41% to 27%.

Compared with `COc1cccc(/C=C/C(=O)N[C@@H](C)C(=O)N[C@H](CCC(=O)N[C@@H](CCCCNC(=O)CCO[C@@H](C(=O)O[C@H]2C[C@@]3(O)[C@@H](OC(=O)c4ccccc4)[C@@H]4[C@]5(OC(C)=O)CO[C@@H]5C[C@H](O)[C@@]4(C)C(=O)[C@H](OC(C)=O)C(=C2C)C3(C)C)[C@@H](NC(=O)c2ccccc2)c2ccccc2)C(=O)O)C(N)=O)c1`, `CC(=O)O[C@H]1C(=O)[C@@]2(C)[C@H]([C@H](OC(=O)c3ccccc3)[C@]3(O)C[C@H](OC(=O)[C@H](OCCC(=O)NCCCC[C@H](NC(=O)CC[C@@H](NC(=O)[C@H](C)NC(=O)/C=C/c4ccc(F)c(F)c4)C(N)=O)C(=O)O)[C@@H](NC(=O)c4ccccc4)c4ccccc4)C(C)=C1C3(C)C)[C@]1(OC(C)=O)CO[C@@H]1C[C@@H]2O` is lower in inhibition: 45% for the first, 29% for the second.

Going from `CC(=O)O[C@@]12CO[C@@H]1C[C@H](O)[C@@]1(C)C(=O)[C@H](O)C3=C(C)[C@@H](OC(=O)[C@H](OCCC(=O)NCCCC[C@H](NC(=O)CC[C@@H](NC(=O)[C@H](C)NC(=O)/C=C/c4ccc(C)cc4)C(N)=O)C(=O)O)[C@@H](NC(=O)C(C)(C)C)c4ccccc4)C[C@@](O)([C@@H](OC(=O)c4ccccc4)[C@H]21)C3(C)C` to `CC(=O)O[C@@]12CO[C@@H]1C[C@H](O)[C@@]1(C)C(=O)[C@H](O)C3=C(C)[C@@H](OC(=O)[C@H](OCCC(=O)NCCCC[C@H](NC(=O)CC[C@@H](NC(=O)[C@H](C)NC(=O)/C=C/c4ccc(O)cc4)C(N)=O)C(=O)O)[C@@H](NC(=O)C(C)(C)C)c4ccccc4)C[C@@](O)([C@@H](OC(=O)c4ccccc4)[C@H]21)C3(C)C`, the inhibition falls from 25% to 23%.

First: CC(=O)O[C@H]1C(=O)[C@@]2(C)[C@H]([C@H](OC(=O)c3ccccc3)[C@]3(O)C[C@H](OC(=O)[C@H](OCCC(=O)NCCCC[C@H](NC(=O)CC[C@@H](NC(=O)[C@H](C)NC(=O)/C=C/c4ccc(Cl)cc4F)C(N)=O)C(=O)O)[C@@H](NC(=O)c4ccccc4)c4ccccc4)C(C)=C1C3(C)C)[C@]1(OC(C)=O)CO[C@@H]1C[C@@H]2O
Second: CC(=O)O[C@H]1C(=O)[C@@]2(C)[C@H]([C@H](OC(=O)c3ccccc3)[C@]3(O)C[C@H](OC(=O)[C@H](OCCC(=O)NCCCC[C@H](NC(=O)CC[C@@H](NC(=O)[C@H](C)NC(=O)/C=C/c4ccc(F)cc4F)C(N)=O)C(=O)O)[C@@H](NC(=O)c4ccccc4)c4ccccc4)C(C)=C1C3(C)C)[C@]1(OC(C)=O)CO[C@@H]1C[C@@H]2O
The inhibition of the first is higher: 45% for the first, 21% for the second.

First: CC(=O)O[C@@]12CO[C@@H]1C[C@H](O)[C@@]1(C)C(=O)[C@H](O)C3=C(C)[C@@H](OC(=O)[C@H](OCCC(=O)NCCCC[C@H](NC(=O)CC[C@@H](NC(=O)[C@H](C)NC(=O)/C=C/c4ccc(Cl)cc4F)C(N)=O)C(=O)O)[C@@H](NC(=O)C(C)(C)C)c4ccccc4)C[C@@](O)([C@@H](OC(=O)c4ccccc4)[C@H]21)C3(C)C
Second: CC(=O)O[C@@]12CO[C@@H]1C[C@H](O)[C@@]1(C)C(=O)[C@H](O)C3=C(C)[C@@H](OC(=O)[C@H](OCCC(=O)NCCCC[C@H](NC(=O)CC[C@@H](NC(=O)[C@H](C)NC(=O)/C=C/c4ccc(F)cc4F)C(N)=O)C(=O)O)[C@@H](NC(=O)C(C)(C)C)c4ccccc4)C[C@@](O)([C@@H](OC(=O)c4ccccc4)[C@H]21)C3(C)C
The inhibition of the first is higher: 32% for the first, 28% for the second.

First: CC(=O)O[C@@]12CO[C@@H]1C[C@H](O)[C@@]1(C)C(=O)[C@H](O)C3=C(C)[C@@H](OC(=O)[C@H](OCCC(=O)NCCCC[C@H](NC(=O)CC[C@@H](NC(=O)[C@H](C)NC(=O)c4ccc5ccccc5n4)C(N)=O)C(=O)O)[C@@H](NC(=O)C(C)(C)C)c4ccccc4)C[C@@](O)([C@@H](OC(=O)c4ccccc4)[C@H]21)C3(C)C
Second: CC(=O)O[C@@]12CO[C@@H]1C[C@H](O)[C@@]1(C)C(=O)[C@H](O)C3=C(C)[C@@H](OC(=O)[C@H](OCCC(=O)NCCCC[C@H](NC(=O)CC[C@@H](NC(=O)[C@H](C)NC(=O)COc4cccc5ccccc45)C(N)=O)C(=O)O)[C@@H](NC(=O)C(C)(C)C)c4ccccc4)C[C@@](O)([C@@H](OC(=O)c4ccccc4)[C@H]21)C3(C)C
The inhibition of the first is lower: 28% for the first, 34% for the second.

`CC(=O)O[C@H]1C(=O)[C@@]2(C)[C@H]([C@H](OC(=O)c3ccccc3)[C@]3(O)C[C@H](OC(=O)[C@H](OCCC(=O)NCCCC[C@H](NC(=O)CC[C@@H](NC(=O)[C@H](C)NC(=O)/C=C/c4ccc(Br)cc4)C(N)=O)C(=O)O)[C@@H](NC(=O)c4ccccc4)c4ccccc4)C(C)=C1C3(C)C)[C@]1(OC(C)=O)CO[C@@H]1C[C@@H]2O` and `CC(=O)O[C@H]1C(=O)[C@@]2(C)[C@H]([C@H](OC(=O)c3ccccc3)[C@]3(O)C[C@H](OC(=O)[C@H](OCCC(=O)NCCCC[C@H](NC(=O)CC[C@@H](NC(=O)[C@H](C)NC(=O)/C=C/c4ccc(Cl)cc4)C(N)=O)C(=O)O)[C@@H](NC(=O)c4ccccc4)c4ccccc4)C(C)=C1C3(C)C)[C@]1(OC(C)=O)CO[C@@H]1C[C@@H]2O` are the same in inhibition: 44% for the first, 44% for the second.

Compared with `CC(=O)O[C@@]12CO[C@@H]1C[C@H](O)[C@@]1(C)C(=O)[C@H](OCCC(=O)NCCCC[C@H](NC(=O)CC[C@@H](NC(=O)[C@H](C)NC(=O)/C=C/c3ccc(Cl)cc3F)C(N)=O)C(N)=O)C3=C(C)[C@@H](O)C[C@@](O)([C@@H](OC(=O)c4ccccc4)[C@H]21)C3(C)C`, `CC(=O)O[C@@]12CO[C@@H]1C[C@H](O)[C@@]1(C)C(=O)[C@H](O)C3=C(C)[C@@H](OC(=O)[C@H](OCCC(=O)NCCCC[C@H](NC(=O)CC[C@@H](NC(=O)[C@H](C)NC(=O)/C=C/c4ccc(F)cc4Cl)C(N)=O)C(N)=O)[C@@H](NC(=O)C(C)(C)C)c4ccccc4)C[C@@](O)([C@@H](OC(=O)c4ccccc4)[C@H]21)C3(C)C` is higher in inhibition: 22% for the first, 58% for the second.

Going from `COC(=O)[C@H](OCCC(=O)NCCCC[C@H](NC(=O)CC[C@@H](NC(=O)[C@H](C)NC(=O)/C=C/c1ccc(Cl)cc1F)C(N)=O)C(N)=O)[C@@H](NC(=O)c1ccccc1)c1ccccc1` to `CCCCOC(=O)[C@H](OCCC(=O)NCCCC[C@H](NC(=O)CC[C@@H](NC(=O)[C@H](C)NC(=O)/C=C/c1ccc(Cl)cc1F)C(N)=O)C(N)=O)[C@@H](NC(=O)c1ccccc1)c1ccccc1`, the inhibition rises from -7% to -6%.

Compared with `CC(=O)O[C@@]12CO[C@@H]1C[C@H](O)[C@@]1(C)C(=O)[C@H](O)C3=C(C)[C@@H](OC(=O)[C@H](OCCC(=O)NCCCC[C@H](NC(=O)CC[C@@H](NC(=O)[C@H](C)NC(=O)/C=C/c4ccc(F)cc4)C(N)=O)C(=O)O)[C@@H](NC(=O)C(C)(C)C)c4ccccc4)C[C@@](O)([C@@H](OC(=O)c4ccccc4)[C@H]21)C3(C)C`, `CC(=O)O[C@@]12CO[C@@H]1C[C@H](O)[C@@]1(C)C(=O)[C@H](O)C3=C(C)[C@@H](OC(=O)[C@H](OCCC(=O)NCCCC[C@H](NC(=O)CC[C@@H](NC(=O)[C@H](C)NC(=O)/C=C/c4ccc(F)c(F)c4)C(N)=O)C(=O)O)[C@@H](NC(=O)C(C)(C)C)c4ccccc4)C[C@@](O)([C@@H](OC(=O)c4ccccc4)[C@H]21)C3(C)C` is higher in inhibition: 19% for the first, 24% for the second.

Biological target: T1, Nucleotide-binding oligomerization domain-containing protein 2
Assay: Inhibition of MDP-induced human NOD2 signaling expressed in HEK-Blue cells preincubated for 3 hrs followed by MDP-stimulation for 20 hrs by spectrophotometry based SEAP reporter gene assay
Assay type: cell-based

Compound `CC(=O)O[C@@]12CO[C@@H]1C[C@H](O)[C@@]1(C)C(=O)[C@H](O)C3=C(C)[C@@H](OC(=O)[C@H](O)[C@@H](NC(=O)OC(C)(C)C)c4ccccc4)C[C@@](O)([C@@H](OC(=O)c4ccccc4)[C@H]21)C3(C)C` [DOCETAXEL ANHYDROUS] has an IC50 of 5.01 µM.
